Assay results as given in patent publication US4663347A, “Benzofuran 2-carboxylic acid esters useful as inhibitors of leukotriene biosynthesis” (Merck Frosst Canada, Inc., priority 1985, dated 1987).
Values after ≈ are worked out from the molar mass of the structure shown.

What was measured:
[1] = tested on: leukotriene biosynthesis (mouse peritoneal macrophages); test: Mouse Macrophage Assay (leukotriene inhibition); type: cell-based; conditions: zymosan stimulated, read-out: LEUKOTRIENE INHIBITION MACROPHAGE ED50
Procedure: Representative compounds of Formula I have been tested using the following assay to determine their mammalian leukotriene biosynthesis inhibiting activity.
Mouse peritoneal macrophages were treated sequentially with arachidonic acid (labelled with tritium); the compound being evaluated as an inhibitor, and a stimulator (zymosan). Metabolites derived from arachidonic acid (PGE2, 6-keto PG-F1α and Leukotriene C4) were separated from the incubation medium by extraction and chromatography, and then quantitated by determining the amount of radioactivity (cpm) associated with each of them. […] (This protocol is identical to that described in the reference except that the radioactivity herein associated with the LTC4 was determined by counting an aliquot of the final aqueous solution directly rather than chromatographying it first).
Reference: Humes, J. L. et al., J. Biol. Chem. 257, 1591-4 (1982).
The following table (Table II) reflects the leukotriene biosynthesis inhibiting ability of selected compounds of Formula I.

asthmatic rats = test: Asthmatic Rat Assay (duration of antigen-induced dyspnea); type: in vivo
Source text: Rats were obtained from an inbred line of asthmatic rats. Both female and male rats from 200 to 300 g were used.
Egg albumin (EA), grade V, crystallized and lyophilized, was obtained from Sigma Chemical Co., St. Louis, Bordetella pertussis vaccine, containing 30×10^9 killed bacteria per ml was obtained from the Institut Armand-Frappier, Laval des Rapides, Quebec. Aluminum hydroxide was obtained from the Regis Chemical Company, Chicago.
The challenge and subsequent respiratory recordings were carried out in a clear plastic box with internal dimensions 10×6×4 inches. The top of the box was removable; in use, it was held firmly in place by four clamps and an airtight seal was maintained by a soft rubber gasket. […] A Fleisch No. 0000 pneumotachograph was inserted into one end of the box and coupled to a Grass volumetric pressure transducer (PT5-A) which was then connected to a Beckman Type R Dynograph through appropriate couplers. While aerosolizing the antigen, the outlets were open and the pneumatachograph was isolated from the chamber. The outlets were closed and the pneumotachograph and the chamber were connected during the recording of the respiratory patterns. […]
Rats were sensitized by injecting (s.c.) 1 ml of a suspension containing 1 mg EA and 200 mg aluminum hydroxide in saline. […] Rats were then exposed to an aerosol of 3% EA in saline for exactly 1 minute, then their respiratory profiles were recorded for a further 25-30 minutes. The duration of continuous dyspnea was measured from the respiratory recordings.
Compounds were generally administered either intraperitoneally 1 hour prior to challenge or orally 11/2 hours prior to challenge. […] Their activity was determined in terms of their ability to decrease the duration of symptoms of dyspnea in comparison with a group of vehicle-treated controls. Usually, a compound was evaluated at a series of doses and an ED50 was determined. […]

[2] = tested on: PAF-induced hyperalgesia (female Sprague-Dawley rats); test: PAF-Induced Hyperalgesia Assay; type: in vivo, rat; conditions: p.o.
Procedure: PAF-Induced Hyperalgesia Assay
Female Sprague-Dawley rats, 35-40 g were fasted overnight. Platelet activating factor, PAF, (L-lecithin B-acetyl O-alkyl) 1 μg/0.1 ml was given by subplantar injection in the rat paw. The compounds to be evaluated were homogenized in Aqueous Vehicle (0.9% benzyl alcohol, 0.5% Tween 80 and 0.4% methylcellulose) and administered orally in a volume of 0.1 ml, 30 minutes prior to PAF.
Animals were tested 1, 2, 3 and 4 hours after PAF administration. The vocalization threshold, defined as the pressure (mmHg) needed to evoke a squeak response, was recorded for both the injected and contralateral paw. No animal was subjected to pressure greater than 60 mmHg. Hyperalgesia is defined as a decrease in vocalization threshold as compared to a normal paw. Percent inhibition of hyperalgesia was calculated as the proportion of animals with vocalization thresholds greater than 200% of controls.

SMILES | IC50 [1] | also measured
CCOC(=O)c1oc2cccc(OC(=S)N(C)C)c2c1C | 2.5 to 5 µg/mL (≈ 8.13 to 16.3 µM) | –
CCOC(=O)c1oc2cccc(SC(=O)N(C)C)c2c1C | 5 µg/mL (≈ 16.3 µM) | –
Cc1c(C(=O)OC(C)(C)C)oc2cccc(O)c12 [drawing 83] | 1 µg/mL (≈ 4.03 µM) | –
CCOC(=O)c1oc2cccc(OC(C)=O)c2c1C [drawing 86] | 5 µg/mL (≈ 19.1 µM) | –
CCOC(=O)c1oc2cccc(O)c2c1C [drawing 93] | – | ASTHMATIC RAT (% inhibition of duration of dyspnea) (asthmatic rats; 5 mg/kg, i.v.): 38%; PAF HYPERALGESIA (percent inhibition of hyperalgesia) ([2]; 10 mg/kg): 10%
Cc1c(C(=O)OC(C)(C)C)oc2cccc(O)c12 [drawing 94] | – | ASTHMATIC RAT (% inhibition of duration of dyspnea) (asthmatic rats; 15 mg/kg, p.o.): 41%; PAF HYPERALGESIA (percent inhibition of hyperalgesia) ([2]; 10 mg/kg): 60%
CCOC(=O)c1oc2cccc(OC(C)=O)c2c1C [drawing 95] | – | ASTHMATIC RAT (% inhibition of duration of dyspnea) (asthmatic rats; 5 mg/kg, i.v.): 63%; PAF HYPERALGESIA (percent inhibition of hyperalgesia) ([2]; 10 mg/kg): 50%
Cc1c(C(=O)Nc2ccccc2)oc2cccc(O)c12 [drawing 96] | – | PAF HYPERALGESIA (percent inhibition of hyperalgesia) ([2]; 1.03 mg/kg): 60%
Cc1c(C(=O)NNc2ccccc2)oc2cccc(O)c12 [drawing 97] | – | PAF HYPERALGESIA (percent inhibition of hyperalgesia) ([2]; 20 mg/kg): 50%
Cc1c(C(=O)NNc2ccc(Cl)cc2)oc2cccc(O)c12 [drawing 98] | – | PAF HYPERALGESIA (percent inhibition of hyperalgesia) ([2]; 1 mg/kg): 60%

The next lines start with results.

IC50 [1] | SMILES | also measured
0.2 µg/mL (≈ 0.647 µM) | CC(=O)Oc1cccc2oc(C(=O)Nc3ccccc3)c(C)c12 | –
0.2 µg/mL (≈ 0.582 µM) | CC(=O)Oc1cccc2oc(C(=O)Nc3ccc(Cl)cc3)c(C)c12 | –
5 µg/mL (≈ 26 µM) | Cc1c(C(=O)O)oc2cccc(O)c12 | –
0.2 µg/mL (≈ 0.908 µM) | CCOC(=O)c1oc2cccc(O)c2c1C [drawing 82] | –
1 to 5 µg/mL (≈ 3.74 to 18.7 µM) | Cc1c(C(=O)Nc2ccccc2)oc2cccc(O)c12 [drawing 90] | –
1 µg/mL (≈ 3.54 µM) | Cc1c(C(=O)NNc2ccccc2)oc2cccc(O)c12 [drawing 91] | –
1 µg/mL (≈ 3.16 µM) | Cc1c(C(=O)NNc2ccc(Cl)cc2)oc2cccc(O)c12 [drawing 92] | –
